From ChEMBL document CHEMBL4396872, “Pharmacokinetics-Driven Optimization of 4(3 H)-Pyrimidinones as Phosphodiesterase Type 5 Inhibitors Leading to TPN171, a Clinical Candidate for the Treatment of Pulmonary Arterial Hypertension” (J Med Chem, 2019)
Each block holds one compound with its values, some of them ahead of it. Activity calls are given as the source filed them. No cut-off for these calls is given here.

Assays:
[1] = target: cGMP-specific 3',5'-cyclic phosphodiesterase (Homo sapiens, UniProt O76074); test: Inhibition of N-terminal GST-tagged human PDE5A1 expressed in baculovirus infected sf9 cells using [3H]cGMP as substrate measured after 30 mins by scintillation proximity assay
Rattus norvegicus [2] = test: Antihypertensive activity in spontaneously hypertensive rat assessed as reduction in mean arterial pressure at 20 mg/kg administered via single gavage measured up to 24 hrs; type: functional, organism-based
[3] = Metabolic stability in human liver microsomes assessed as parent compound remaining at 1 uM in presence of NADPH after 30 mins by LC-MS/MS analysis; type: ADME, Microsome; settings: read-out: Stability
Homo sapiens = organism: Homo sapiens; test: Selectivity ratio of IC50 for N-terminal GST-tagged human PDE6C to IC50 for N-terminal GST-tagged human PDE5A1
Rattus norvegicus [4] = test: Antihypertensive activity in spontaneously hypertensive rat assessed as reduction in mean arterial pressure at 20 mg/kg administered via single gavage and measured at 4 hrs; type: functional, organism-based
[5] = Oral bioavailability in Sprague-Dawley rat at 1 mg/kg measured up to 24 hrs by HPLC analysis; type: ADME, organism-based; settings: in vivo
Rattus norvegicus [6] = test: […] activity in MCT-induced pulmonary arterial hypertension Sprague-Dawley rat model assessed as reduction in mean pulmonary artery pressure at 1 mg/kg administered once daily for 21 days starting from 21 days post-MCT challenge by right cardiac catheter method; type: functional, organism-based
[7] = Cmax in Sprague-Dawley rat at 1 mg/kg, po measured up to 24 hrs by HPLC analysis; type: ADME, organism-based; parameters: dose 1 mg/kg, route oral; settings: in vivo
[8] = Half-life in Sprague-Dawley rat at 4 mg/kg, iv measured up to 24 hrs by HPLC analysis; type: ADME, organism-based; settings: in vivo
Rattus norvegicus [9] = test: Antihypertensive activity in spontaneously hypertensive rat assessed as reduction in mean arterial pressure at 20 mg/kg administered via single gavage and measured at 2 hrs; type: functional, organism-based
[10] = Clearance in Sprague-Dawley rat at 4 mg/kg, iv measured up to 24 hrs by HPLC analysis; type: ADME, organism-based; settings: in vivo
Rattus norvegicus [11] = test: […] activity in MCT-induced pulmonary arterial hypertension Sprague-Dawley rat model assessed as reduction in mean pulmonary artery pressure at 25 mg/kg administered once daily for 21 days starting from 21 days post-MCT challenge by right cardiac catheter method; type: functional, organism-based
[12] = Tmax in Sprague-Dawley rat at 1 mg/kg, po measured up to 24 hrs by HPLC analysis; type: ADME, organism-based; settings: in vivo
[13] = Half-life in Sprague-Dawley rat at 1 mg/kg, po measured up to 24 hrs by HPLC analysis; type: ADME, organism-based; settings: in vivo
Rattus norvegicus [14] = test: Antihypertensive activity in spontaneously hypertensive rat assessed as reduction in mean arterial pressure at 20 mg/kg administered via single gavage after 6 hrs; type: functional, organism-based
Rattus norvegicus [15] = test: […] activity in MCT-induced pulmonary arterial hypertension Sprague-Dawley rat model assessed as reduction in mean pulmonary artery pressure at 100 mg/kg administered once daily for 21 days starting from 21 days post-MCT challenge by right cardiac catheter method; type: functional, organism-based
[16] = Volume of distribution at steady state in Sprague-Dawley rat at 4 mg/kg, iv measured up to 24 hrs by HPLC analysis; type: ADME, organism-based; settings: in vivo, read-out: Vdss

IC50 [1]: 1.69 nM | remaining at 0.5 h, 1 µM [3]: 100% | Ratio IC50 (Homo sapiens): 86
SMILES: CCCOc1ccc(S(=O)(=O)NCCC(=O)O)cc1-c1nc(CC)c(CC)c(=O)[nH]1
Activity (Rattus norvegicus [2]): inactive

Ratio IC50 (Homo sapiens): 22
SMILES: CCCOc1ccc(NC(=O)C(N)=O)cc1-c1nc(CC)c(CC)c(=O)[nH]1

Ratio IC50 (Homo sapiens): 11
SMILES: CCCOc1ccc(NC(=O)CC)cc1-c1nc(CC)c(CC)c(=O)[nH]1

Ratio IC50 (Homo sapiens): 7
SMILES: CCCOc1ccc(NC(=O)CCCNC(C)=O)cc1-c1nc(CC)c(CC)c(=O)[nH]1

Ratio IC50 (Homo sapiens): 17
SMILES: CCCOc1ccc(NC(N)=O)cc1-c1nc(CC)c(CC)c(=O)[nH]1

IC50 [1]: 5.33 nM | Ratio IC50 (Homo sapiens): 10
SMILES: CCCOc1ccc(N)cc1-c1nc(CC)c(CC)c(=O)[nH]1

Second part, the compound before the results:

SMILES: CCCOc1ccc(NC(=O)N2CCCC2)cc1-c1nc(CC)c(CC)c(=O)[nH]1
Ratio IC50 (Homo sapiens): 11

SMILES: CCCOc1ccc(NC(=O)C2CCN(C)CC2)cc1-c1nc(CC)c(CC)c(=O)[nH]1
IC50 [1]: 0.79 nM | Ratio IC50 (Homo sapiens): 24

SMILES: CCCc1nn(C)c2c(=O)[nH]c(-c3cc(S(=O)(=O)N4CCN(C)CC4)ccc3OCC)nc12
Activity (Rattus norvegicus [4]): inactive | bioavailability [5]: 34% | Activity (Rattus norvegicus [6]): Active | Cmax [7]: 76 ng/mL | half-life [8]: 1.1 h | Activity (Rattus norvegicus [9]): Active | clearance [10]: 30.5 mL/min/kg | Activity (Rattus norvegicus [11]): Active | Tmax [12]: 1.6 h | half-life [13]: 0.65 h | Activity (Rattus norvegicus [14]): inactive | Activity (Rattus norvegicus [15]): Active | Vd [16]: 1.6 L/kg

SMILES: CCCOc1ccc(NC(=O)[C@@H]2CCCN2C(C)=O)cc1-c1nc(CC)c(CC)c(=O)[nH]1
IC50 [1]: 0.54 nM | Ratio IC50 (Homo sapiens): 10
